From patent US7196110B2, “N-substituted tricyclic 3-aminopyrazoles as inhibitors for the treatment of cell proliferative disorders” (Janssen Phamaceutica N.V., priority 2002, dated 2007)
Like-named read-outs stand apart in the source and are kept apart here.

Columns and labels:
c-Abl kinase = c-Abl kinase (Abelson murine leukemia virus, UniProt P00521); assay: Inhibition of c-Abl kinase activity (cell-free, Abl peptide substrate, 33P Flashplate); format: biochemical; conditions: IC50 for the c-Abl kinase activity
c-Abl kinase, sequence (P00521 115-385): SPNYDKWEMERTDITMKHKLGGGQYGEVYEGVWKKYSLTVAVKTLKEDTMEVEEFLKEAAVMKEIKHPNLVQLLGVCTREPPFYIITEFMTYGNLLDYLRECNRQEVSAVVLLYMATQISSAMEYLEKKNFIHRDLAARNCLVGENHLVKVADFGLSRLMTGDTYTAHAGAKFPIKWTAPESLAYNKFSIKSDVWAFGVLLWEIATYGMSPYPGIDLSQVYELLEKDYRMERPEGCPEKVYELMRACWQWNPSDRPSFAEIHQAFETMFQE
Description: The inhibitory activity of compounds within the scope of the invention on c-Abl kinase activity was tested according to the following procedure.
• 1. 10× Kinase Buffer [500 mM Tris-HCl pH=8, 100 mM MgCl2, 1 mM Na3VO4] • 2. 10 mM DTT [final concentration 1 mM] • 3. 10 mM ATP [final concentration 5 μM] (Gibco, Cat No:18330-019, Carlsbad, Calif.) • 4. ^33P-γ-ATP [NEG-602H; 2000–3000 Ci/mmol], 2 μCuries per well at 10 μCi/μl (0.2 μl/well) • 5. Abl enzyme (New England Biolabs, Cat No. P6050L, Beverly, Mass.) at 100 Units/μl use 10 Units/well (0.1 μl/well) • 6. Enzyme Dilution Buffer [50 mM Tris-HCl pH=8.0, 0.1% BSA] • 7. Wash/Stop Buffer [PBS+100 mM EDTA] • 8. NEN Streptavidin Flashplates (New England Nuclear, Cat No. SMP-103, Boston, Mass.). • 9. Abl Peptide Substrate (Biotin-[…]-amide) at 1 mM in 50 mM Tris-HCL pH=8.0. (Use at 1.0 μM). Procedure
Reagents were first mixed according to the following regimen:
The above reaction mixture was dispensed into each well of a Flashplate at 70 μl/well. To test the effect of a compound on Abl kinase activity, the test compound either in a fixed concentration or in serially diluted concentrations in 100% DMSO was added to appropriate wells at 1 μl/well.
Enzyme Abl was diluted in enzyme dilution buffer as following:
The kinase reaction was started by adding 30 μl of diluted Abl enzyme solution to each well on the Flashplate containing hot ATP (2 μCi/well) and Abl peptide substrate (at 1 μM final conc.), except wells of column 12 rows E and F, which were used to calculate the plate background. The Flashplate was swirled to mix and was incubated at 30° C. for 60 minutes. Then, the reaction mixture was discarded and the Flashplate was washed 3 times each with 200 μL Wash/Stop Buffer. Subsequently, each well on the Flashplate was filled with 200 μl of Wash/Stop buffer. The amount of ^33P retained in each well was measured using a Packard TopCount after the plate was sealed with a transparent plate sealer.
In order to test the potency of inhibition of present compounds, an IC50 for an individual compound was measured using the above procedure. As used herein, the IC50 for c-Abl kinase activity refers to the concentration of an inhibitor at which the activity of c-Abl kinase is reduced by one-half as compared with reactions containing no inhibitor.

[1] = biological target: T1, PDGF-receptor beta enzyme comprising the tyrosine kinase domain (Homo sapiens, UniProt P09619); assay: Inhibition of PDGF-receptor kinase activity (cell-free, PLC1 peptide, 33P Flashplate); format: biochemical; conditions: for inhibition at 10 µM: read-out: Percent Inhibition @ 10 uM
T1 construct: from amino acid 545 to 1106 of GenBank Access NO: AAA36427
T1 sequence (P09619 545-1106): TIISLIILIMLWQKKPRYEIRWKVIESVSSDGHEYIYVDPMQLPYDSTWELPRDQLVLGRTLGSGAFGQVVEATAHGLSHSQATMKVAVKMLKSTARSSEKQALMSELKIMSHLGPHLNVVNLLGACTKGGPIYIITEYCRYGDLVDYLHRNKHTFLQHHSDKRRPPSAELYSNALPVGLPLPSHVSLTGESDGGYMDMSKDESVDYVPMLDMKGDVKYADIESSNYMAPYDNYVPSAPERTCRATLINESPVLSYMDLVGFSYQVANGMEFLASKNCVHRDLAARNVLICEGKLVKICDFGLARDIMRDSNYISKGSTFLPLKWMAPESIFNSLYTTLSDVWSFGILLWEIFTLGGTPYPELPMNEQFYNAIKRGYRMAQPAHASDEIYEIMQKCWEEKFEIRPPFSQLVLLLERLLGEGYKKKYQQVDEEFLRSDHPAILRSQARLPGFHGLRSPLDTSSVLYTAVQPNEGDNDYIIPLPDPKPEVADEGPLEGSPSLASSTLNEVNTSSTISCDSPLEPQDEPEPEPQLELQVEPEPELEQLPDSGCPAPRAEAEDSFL
Method in brief: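 Recombinant kinase domain (aa 545–1106) phosphorylated a biotinylated PLC1 peptide with 5 μM ATP plus 33P-γ-ATP, in Tris pH 8, MgCl2, Na3VO4 and 1 mM DTT, for 60 min at 30 °C. Retained 33P was counted after washing. IC50 is the concentration halving activity versus no-inhibitor reactions.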

[2] = PDGF-R kinase activity, compound at 10 uM
[3] = PDGF-R kinase activity, read-out: IC50

SMILES	IC50 (c-Abl kinase) [nM]	inhibition at 10 µM [1, 2] [%]	IC50 [1, 3] [nM]	IC50 ([1]; IC50 (μM), PDGF-R kinase activity) [nM]	inhibition at 10 µM [1] [%]
COc1cc2c(cc1O)Cc1c-2n[nH]c1Nc1cccc(F)c1 [Compound 363, 3-(3-Fluoro-phenylamino)-7-methoxy-2,4-dihydro-indeno[1,2-c]pyrazol-6-ol]	1	76.5	5.47		
Cc1ccc2c(c1)-c1n[nH]c(Nc3cccc(F)c3)c1C2 [Compound 182, (3-Fluoro-phenyl)-(7-methyl-2,4-dihydro-indeno[1,2-c]pyrazol-3-yl)-amine]	93	107	5		
COc1cc2c(cc1OCC(O)CO)Cc1c-2n[nH]c1Nc1ccc(F)c(Cl)c1 (stereo not drawn) [Compound 261, 3-[3-(3-Chloro-4-fluoro-phenylamino)-7-methoxy-2,4-dihydro-indeno[1,2-c]pyrazol-6-yloxy]-propane-1,2-diol]	64	71	10		
COc1cc2c(cc1OCCCN1CCOCC1)Cc1c-2n[nH]c1Nc1cccc(F)c1 [Compound 134, (3-Fluoro-phenyl)-[7-methoxy-6-(3-morpholin-4-yl-propoxy)-2,4-dihydro-indeno[1,2-c]pyrazol-3-yl]-amine]	1160	96	10.1		
CC(O)c1cccc(Nc2[nH]nc3c2Cc2cc(F)ccc2-3)c1 (stereo not drawn) [Compound 289, 1-[3-(6-Fluoro-2,4-dihydro-indeno[1,2-c]pyrazol-3-ylamino)-phenyl]-ethanol]	2400	93.5	18.5		
CN1CCN(c2ccc3c(c2)Cc2c-3n[nH]c2Nc2cccc(Cl)c2)CC1 [Compound 124, (3-Chloro-phenyl)-[6-(4-methyl-piperazin-1-yl)-2,4-dihydro-indeno[1,2-c]pyrazol-3-yl]-amine]	1850	94	16.3		
COc1cc2c(cc1OCC(O)CN1CCCC1)Cc1c-2n[nH]c1Nc1cccc(Cl)c1 (stereo not drawn) [Compound 282, 1-[3-(3-Chloro-phenylamino)-7-methoxy-2,4-dihydro-indeno[1,2-c]pyrazol-6-yloxy]-3-pyrrolidin-1-yl-propan-2-ol]	43	99	0.089		
COc1cc2c(cc1F)Cc1c-2n[nH]c1Nc1cccc(Br)c1 [Compound 358, (3-Bromo-phenyl)-(6-fluoro-7-methoxy-2,4-dihydro-indeno[1,2-c]pyrazol-3-yl)-amine]	338	92	8.77		
Clc1ccc2c(c1)Cc1c-2n[nH]c1Nc1cccnc1 [Compound 188, (6-Chloro-2,4-dihydro-indeno[1,2-c]pyrazol-3-yl)-pyridin-3-yl-amine]	1400	74	43.7		
COc1cc2c(cc1OCCCN(C)C)Cc1c-2n[nH]c1Nc1ccc(F)c(Cl)c1 [Compound 200, (3-Chloro-4-fluoro-phenyl)-[6-(3-dimethylamino-propoxy)-7-methoxy-2,4-dihydro-indeno[1,2-c]pyrazol-3-yl]-amine]	20	87	2		
COC(=O)c1cccc(Nc2[nH]nc3c2Cc2cc(OCCCN4CCOCC4)c(OC)cc2-3)c1 [Compound 133, 3-[7-Methoxy-6-(3-morpholin-4-yl-propoxy)-2,4-dihydro-indeno[1,2-c]pyrazol-3-ylamino]-benzoic acid methyl ester]	498	53	37.9		
COc1cc2c(cc1OCCCn1ccnc1)Cc1c-2n[nH]c1Nc1ccc(F)c(Cl)c1 [Compound 227, (3-Chloro-4-fluoro-phenyl)-[6-(3-imidazol-1-yl-propoxy)-7-methoxy-2,4-dihydro-indeno[1,2-c]pyrazol-3-yl]-amine]	641	83.5	34.9		
CN(C)CCCOc1ccc2c(c1)Cc1c-2n[nH]c1Nc1cccc(F)c1 [Compound 160, [6-(3-Dimethylamino-propoxy)-2,4-dihydro-indeno[1,2-c]pyrazol-3-yl]-(3-fluoro-phenyl)-amine]	1020	94.5	58.5		
COc1ccc2c(c1)-c1n[nH]c(Nc3ccc(F)cc3)c1C2 [Compound 170, (4-Fluoro-phenyl)-(7-methoxy-2,4-dihydro-indeno[1,2-c]pyrazol-3-yl)-amine]	75	95.5	26.8		
COCCCOc1cc2c(cc1OCCCOC)-c1n[nH]c(Nc3cccnc3)c1C2 [Compound 286, [6,7-Bis-(3-methoxy-propoxy)-2,4-dihydro-indeno[1,2-c]pyrazol-3-yl]-pyridin-3-yl-amine]	2950	95.5	16.2		
COc1cc2c(cc1OC)-c1n[nH]c(Nc3cccc(O)c3)c1C2 [Compound 38, 3-(6,7-Dimethoxy-2,4-dihydro-indeno[1,2-c]pyrazol-3-ylamino)-phenol]	2	74	31		
Clc1ccc2c(c1)Cc1c-2n[nH]c1Nc1ccccc1 [Compound 21, (6-Chloro-2,4-dihydro-indeno[1,2-c]pyrazol-3-yl)-phenyl-amine]		103	121		
CCOP(=O)(OCC)n1nc(Nc2cccc(F)c2)c2c1-c1cc(OC)c(OC)cc1C2 [Compound 446, [3-(3-Fluoro-phenylamino)-6,7-dimethoxy-4H-indeno[1,2-c]pyrazol-1-yl]-phosphonic acid diethyl ester]				266	93.5
Fc1ccc2c(c1)Cc1c-2n[nH]c1Nc1ccccc1 [Compound 24, (6-Fluoro-2,4-dihydro-indeno[1,2-c]pyrazol-3-yl)-phenyl-amine]		71	84		
CC(C)Oc1cc2c(cc1OC(C)C)-c1n[nH]c(Nc3cccc(F)c3)c1C2 [Compound 169, (6,7-Diisopropoxy-2,4-dihydro-indeno[1,2-c]pyrazol-3-yl)-(3-fluoro-phenyl)-amine]		89	36		
COc1cc2c(cc1OC)-c1nn(C(=O)NCCN3CCOCC3)c(Nc3cccc(F)c3)c1C2 [Compound 522, 3-(3-Fluoro-phenylamino)-6,7-dimethoxy-4H-indeno[1,2-c]pyrazole-2-carboxylic acid (2-morpholin-4-yl-ethyl)-amide]		94	791		
COc1cc2c(cc1OC)-c1c(c(Nc3cccc(F)c3)nn1C(=O)NCCNC(=O)c1ccccc1O)C2 [Compound 542, 3-(3-Fluoro-phenylamino)-6,7-dimethoxy-4H-indeno[1,2-c]pyrazole-1-carboxylic acid [2-(2-hydroxy-benzoylamino)-ethyl]-amide]		21			
c1ccc(Nc2[nH]nc3c2CCOc2ccccc2-3)cc1 [Compound 318, (4,5-Dihydro-2H-6-oxa-1,2-diaza-benzo[e]azulen-3-yl)-phenyl-amine]		23	34400		
COc1cc2c(cc1OC)-c1n[nH]c(Nc3cc(Cl)cc(Cl)c3)c1C2 [Compound 19, (3,5-Dichloro-phenyl)-(6,7-dimethoxy-2,4-dihydro-indeno[1,2-c]pyrazol-3-yl)-amine]		91	174		
COc1ccccc1Nc1[nH]nc2c1Cc1cc(OC)c(OC)cc1-2 [Compound 27, (6,7-Dimethoxy-2,4-dihydro-indeno[1,2-c]pyrazol-3-yl)-(2-methoxy-phenyl)-amine]		71	655		
COc1cc2c(cc1OC)-c1n[nH]c(Nc3ccc(F)c(Cl)c3)c1C2 [Compound 53, (3-Chloro-4-fluoro-phenyl)-(6,7-dimethoxy-2,4-dihydro-indeno[1,2-c]pyrazol-3-yl)-amine]		94	58.6		
COC(=O)c1cccc(Nc2[nH]nc3c2Cc2cc4c(cc2-3)OCO4)c1 [Compound 127, 3-(2,9-Dihydro-5,7-dioxa-2,3-diaza-cyclopenta[a]-s-indacen-1-ylamino)-benzoic acid methyl ester]		89	421		
